Results on 7 compounds are retold here after US10640492B2, “Tubulin inhibitor” (SHENZHEN NEPTUNUS PHARMACEUTICAL RESEARCH INSTITUTE CO., …, priority 2016, dated 2020).

One may read the IC50 as the midpoint of a concentration-inhibition curve.

The test system of one data set is tubulin in HuVEC cells. The data set is described as follows: Action on microtubule function, α-tubulin staining in HuVEC. Type of data set: cell-based, human. The following applies: 2 μM, 30 minutes, vs DMSO control. An excerpt:
Human umbilical vein endothelial cells (HuVEC from Cambrex) were used in this study.

The subject of data set [1] is tumor cells inoculated in nude mice. The settings on record: nude mice inoculated with tumor cells (FIG. 2A). As to the method:
The nude mice inoculated with tumor cells were administrated with blank vehicle, docetaxel, compound 17 as well as the combination drug of docetaxel and compound 17. The tumor volume was measured at different time period after the administration and the change of tumor volume was evaluated. At the same time, the change of body weight of the nude mice was examined to evaluate the antitumor effect and the toxicity degree of the drug. In addition, based on the above administration and grouping methods, the blood neutrophil count level for normal SD rats was measured before administration and after the final administration to evaluate the influence of the drug on neutrophil counts.

Data set [2] relates to HT-1080 human fibrosarcoma cell strain. The data set is described as follows: CCK-8 cytotoxicity IC50, HT-1080. The settings on record: HT-1080, 72 h, read-out: cytotoxicity IC50.
Protocol: (§1) To test the cytotoxic IC50 values of 14 candidate compounds against 5 cell strains (MDA-MB-231, HT-1080, AGS, A-673 & HUVEC) using a CCK-8 test kit.
(§2) a) The compound was serially diluted with DMSO starting from 0.5 μM, using twice echelon dilution.
(§3) The logarithmic growth phase cells were collected and counted. The cells were re-suspended in complete medium, whose concentration was adjusted according to the test results of the cell density optimization, and then seeded into 96-well plates with 100 μl of the cell suspension to each well. The cells were incubated in a 37° C., 100% relative humidity, 5% CO2 incubator for 24 hours.
(§4) b) The test compound was diluted with the medium to the corresponding action concentrations set up, and added into the cells in the plates at 25 μl/well. The test compound was prepared in 9 final action concentrations, which were obtained by sequentially diluted from 500 nM using twice echelon dilution.
(§5) c) The cells were incubated in a 37° C., 100% relative humidity, 5% CO2 incubator for 72 hours.
(§6) d) The medium was removed from the cells, and a complete medium containing 10% CCK-8 was added and incubated in a 37° C. incubator for 1-4 hours.
(§7) e) After gentle shaking, the absorbance at 450 nm of the sample was measured on a SpectraMax M5 Microplate Reader, and the inhibition ratio was calculated using the absorbance at 650 nm as reference.
(§8) The inhibition ratio of the drug on tumor cell growth was calculated as follows: tumor cell growth inhibition %=[(Ac−As)/(Ac−Ab)]×100%
(§9) The IC50 curve was fitted and the IC50 value was calculated using the software Graphpad Prism 5 and using the calculation formula log(inhibitor) vs. normalized response-variable slope or log(inhibitor) vs. response-variable slope.
The nature of data set [3]: CCK-8 cytotoxicity IC50, HUVEC. The following applies: human, HUVEC umbilical vein endothelial cells.
Protocol: HUVEC human umbilical vein endothelial cell strain (purchased from ScienCell Research Laboratories, Cat #8000, Lot #11233)
as §2, §3, §4, §5, §6, §7, §8, §9
Data set [4] deals with drug-resistant MES-SA cells (p-glycoprotein induced). The data set is described as follows: Inhibitory effect on tumor proliferation, drug-resistant MES-SA transplanted tumor. Type of data set: in vivo. The settings on record: drug-resistant MES-SA nude mice, dose that does not reduce body weight, vs blank vehicle (FIG. 1). Here is the method: MES-SA cells (derived from ATCC) were cultured in low concentration of adriamycin for a long time to maintain sufficient cell viability and induced the expression of p-glycoprotein. After culturing for 10 months, the results of induced expression were detected by WB. After successful induction, the cells were cultured for one week in adriamycin-free medium. The tumor cells with adjusted concentration were inoculated into the armpit of nude mice. The transplanted tumors were treated with different drugs when they grew to a certain volume. Different doses of different drugs were administrated to blank mice to explore the drug dose not affecting the body weight of the animals, namely the dose to be administrated to treat the animals with transplanted tumors.

In data set [5] the test system is A-673 human rhabdomyosarcoma cell strain. In words: CCK-8 cytotoxicity IC50, A-673. The settings on record: A673, 72 h, read-out: cytotoxicity IC50.
Protocol: as §1, §2, §3, §4, §5, §6, §7, §8, §9
Data set [6] in a line: Stability investigation (10-day accelerated stress testing).
Protocol: The tested conditions included 40° C., 60° C., humidity 75%, humidity 92.5%, and light. And under each condition, moisture, purity, maximum single impurity and total impurity of the compound tested were compared to that of day 0.
Data set [7] deals with AGS human gastric adenocarcinoma cell strain. In words: CCK-8 cytotoxicity IC50, AGS. The settings on record: 72 h, read-out: cytotoxicity IC50.
Protocol: AGS human gastric adenocarcinoma cell strain (purchased from Shanghai Cell Resource Center, Chinese Academy of Sciences)
as §2, §3, §4, §5, §6, §7, §8, §9
Data set [8] relates to MDA-MB-231 human breast cancer cell strain. The data set is described as follows: CCK-8 cytotoxicity IC50, MDA-MB-231. The following applies: MDA-MB-231, 72 h, read-out: cytotoxicity IC50.
Protocol: as §1
MDA-MB-231 human breast cancer cell strain (purchased from Shanghai Cell Resource Center, Chinese Academy of Sciences)
as §2, §3, §4, §5, §6, §7, §8, §9
The test system of data set [9] is blood flow distribution in tissues and tumor tissue. In words: Blood flow distribution of tissues and tumor. The format is in vivo, nude mice. The settings on record: two hours after administration, same pharmacodynamic dose, vs blank vehicle. An excerpt: In this example, the effects of drugs on blood flow distribution of different tissues and organs at the same pharmacodynamic dose were simultaneously tested.

The subject of a further data set is neutrophil count. In words: Effect on the neutrophil count at equivalent pharmacodynamic dose. The settings on record: rats, continuous administration for two weeks (FIG. 3).
[10] abbreviates: Day 10, sample 1 (no stress condition given).

Description for neutrophil count: Multiple doses of different drugs were administrated to the nude mice respectively and the potency of the drugs in inhibiting the transplanted tumor in the nude mice was investigated. Base on the investigation, the equivalent dose of each drug was identified and converted to rat dose before administrated to the rats. That is, by administrating the rats with relatively equivalent pharmacodynamic dose, the effect of the drugs on the neutrophil count was examined. After continuously administration for two weeks, blood samples were collected and neutrophil counts were measured (FIG. 3).

On to `CC(=O)O[C@H]1C(=O)[C@@]2(C)[C@H]([C@H](OC(=O)c3ccccc3)[C@]3(O)C[C@H](OC(=O)[C@H](O)[C@@H](NC(=O)c4ccccc4)c4ccccc4)C(C)=C1C3(C)C)[C@]1(OC(C)=O)CO[C@@H]1C[C@@H]2O` [Paclitaxel, paclitaxel, reference compound], for which the microtubule depolymerization result with tubulin in HuVEC cells was “did not induce microtubule depolymerization”.

Regarding `CC(C)(C)c1[nH]cnc1/C=c1\[nH]c(=O)/c(=C/C=C/c2cc(F)ccc2Cl)[nH]c1=O` [Compound 17], in [1], the “inhibition of tumor proliferation (tumor volume)” value is reported as “can effectively inhibit the proliferation of tumor in vivo”. Further, the cell membrane blebbing entry with tubulin in HuVEC cells is “induced”. In the data set on tubulin in HuVEC cells, the microtubule depolymerization entry was “induced”. Moreover, the IC50 was determined as 14.6 nM in [2], 7.25 nM in data set [5], 10.8 nM in data set [7] and 20.4 nM in [8]. The 50% inhibitory concentration (IC50) at 72 h in [3] worked out at 35 nM. For the same compound, in [4], the “anti-tumor proliferation effect (tumor weight)” value (“anti-tumor proliferation effect” below) is reported as “can effectively exert anti-tumor proliferation effects”. Also, the “stability, overall finding” value in data set [6] (10-day accelerated test: 40° C., 60° C., humidity 75%, humidity 92.5%, light) was “stable”. The Content in data set [6] (Day 0) is 99.8%; in data set [6] (Day 5, 40° C.) it was 100.9%; in data set [6] (Day 5, 60° C.), 99.0%; in [6] (Day 5, humidity 75%) it was 99.5%; in [6] (Day 5, humidity 92.5%) it was 99.5%; in data set [6] (Day 5, light) it was 100.3%. Besides, the Content is listed as 100.5% in data set [6] (Day 10, 40° C.); 99.7% in [6] (Day 10, 60° C.); 99.0% in data set [6] (Day 10, humidity 75%); 99.4% in data set [6] (Day 10, humidity 92.5%); 99.6% in [6] (Day 10, light); 100.4% in [6] (setting [10]). Besides, the Maximum single impurity in data set [6] (Day 0) is on record as 0.03 (RRT: 0.31) %; in data set [6] (Day 5, 40° C.) it was 0.02 (RRT: 0.31) %; in data set [6] (Day 5, 60° C.), 0.03 (RRT: 0.31) %; in data set [6] (Day 5, humidity 75%) it was 0.02 (RRT: 0.32) %; in data set [6] (Day 5, humidity 92.5%) it was 0.02 (RRT: 0.31) %; in data set [6] (Day 5, light), 0.04 (RRT: 0.31) %. The Maximum single impurity in data set [6] (Day 10, 40° C.) is on record as 0.04 (RRT: 0.31) %; in data set [6] (Day 10, 60° C.) it was 0.03 (RRT: 0.31) %; in data set [6] (Day 10, humidity 75%) it was 0.04 (RRT: 0.31) %; in data set [6] (Day 10, humidity 92.5%), 0.03 (RRT: 0.31) %; in [6] (Day 10, light), 0.04 (RRT: 0.31) %; in [6] (setting [10]), 0.03 (RRT: 0.31) %. The Moisture in data set [6] (Day 0) amounted to 0.1%; in [6] (Day 5, 40° C.), 0.1%; in data set [6] (Day 5, 60° C.) it was 0.2%; in data set [6] (Day 5, humidity 75%), 0.2%; in data set [6] (Day 5, humidity 92.5%), 0.3%; in [6] (Day 5, light), 0.1%. Also, the Moisture in [6] (Day 10, 40° C.) stood at 0.1%; in data set [6] (Day 10, 60° C.), 0.2%; in [6] (Day 10, humidity 75%), 0.2%; in data set [6] (Day 10, humidity 92.5%), 0.3%; in data set [6] (Day 10, light) it was 0.1%; in data set [6] (setting [10]) it was 0.1%. Moreover, the Total impurity in data set [6] (Day 0) is reported as 0.06%; in data set [6] (Day 5, 40° C.) it was 0.05%; in data set [6] (Day 5, 60° C.), 0.06%; in [6] (Day 5, humidity 75%), 0.07%; in [6] (Day 5, humidity 92.5%), 0.07%; in [6] (Day 5, light) it was 0.07%. The Total impurity in [6] (Day 10, 40° C.) is 0.07%; in data set [6] (Day 10, 60° C.), 0.08%; in data set [6] (Day 10, humidity 75%), 0.11%; in data set [6] (Day 10, humidity 92.5%) it was 0.08%; in [6] (Day 10, light) it was 0.09%; in data set [6] (setting [10]), 0.08%. The “distribution of blood flow in tissues except tumor tissues” value (“distribution of blood flow” for short) in [9] is on record as “did not significantly affect the distribution of blood flow in tissues except tumor tissues”. Also, the “intratumoral blood flow distribution” value in [9] is on record as “can significantly reduce the intratumoral blood flow distribution”. For the same compound, the neutrophil count result in the data set on neutrophil count is “had no obvious effect on neutrophils”.

With `CC(C)(C)c1nc[nH]c1/C=c1\[nH]c(=O)/c(=C/C=C/c2cccc(F)c2)[nH]c1=O` [Compound 7], the cell membrane blebbing entry with tubulin in HuVEC cells is “induced”. Also, the microtubule depolymerization entry in the data set with tubulin in HuVEC cells is “induced”. For the same compound, the IC50 in data set [2] was 43.6 nM; in data set [5], 35.4 nM; in data set [7] it was 43 nM; in data set [8], 39.5 nM. For the same compound, the IC50 at 72 h in data set [3] is 94.9 nM. In addition, in data set [4], the “anti-tumor proliferation effect” value is given as “can effectively exert anti-tumor proliferation effects”. Also, the “distribution of blood flow” value in data set [9] is “did not significantly affect the distribution of blood flow in tissues except tumor tissues”. The “intratumoral blood flow distribution” value in [9] is listed as “can significantly reduce the intratumoral blood flow distribution”. Moreover, in the data set with neutrophil count, the neutrophil count entry is recorded as “had no obvious effect on neutrophils”.

In the case of `CC(C)(C)c1[nH]cnc1/C=c1\[nH]c(=O)/c(=C/C=C/c2cccc(C#N)c2)[nH]c1=O` [Compound 15], the cell membrane blebbing entry in the data set on tubulin in HuVEC cells is recorded as “induced”. Moreover, the microtubule depolymerization result in the data set with tubulin in HuVEC cells is on record as “induced”. For the same compound, the IC50 was 78.8 nM in data set [2], 94.9 nM in [5], 63.5 nM in data set [7] and 123 nM in data set [8]. In data set [3], this compound registered an IC50 at 72 h of 78.6 nM. The “anti-tumor proliferation effect” value in [4] was “can effectively exert anti-tumor proliferation effects”. Also, the “distribution of blood flow” value in data set [9] is given as “did not significantly affect the distribution of blood flow in tissues except tumor tissues”. In addition, the “intratumoral blood flow distribution” value in data set [9] is recorded as “can significantly reduce the intratumoral blood flow distribution”. Also, the neutrophil count entry in the data set on neutrophil count was “had no obvious effect on neutrophils”.

On to `COc1ccc(/C=C/C=c2\[nH]c(=O)/c(=C/c3nc[nH]c3C(C)(C)C)[nH]c2=O)cc1` [Compound 12], for which the cell membrane blebbing result in the data set on tubulin in HuVEC cells is “induced”. In the data set with tubulin in HuVEC cells, the microtubule depolymerization result is listed as “induced”. In addition, the IC50 in [2] is 136 nM; in data set [5], 37.3 nM; in data set [7] it was 35.3 nM; in data set [8], 45.5 nM. This compound displayed an IC50 at 72 h in data set [3] of 43.1 nM. For the same compound, the “anti-tumor proliferation effect” value in data set [4] is given as “can effectively exert anti-tumor proliferation effects”. In addition, the “distribution of blood flow” value in data set [9] is “did not significantly affect the distribution of blood flow in tissues except tumor tissues”. For the same compound, the “intratumoral blood flow distribution” value in [9] is “can significantly reduce the intratumoral blood flow distribution”. Moreover, the neutrophil count result with neutrophil count is on record as “had no obvious effect on neutrophils”.

In the case of `CC(C)(C)c1[nH]cnc1/C=c1\[nH]c(=O)/c(=C/C=C/c2ccc(OC(F)(F)F)cc2)[nH]c1=O` [Compound 10], the cell membrane blebbing entry in the data set on tubulin in HuVEC cells is given as “induced”. The microtubule depolymerization entry with tubulin in HuVEC cells is “induced”. For the same compound, the IC50 in data set [2] came out at 224 nM; in data set [5], 165 nM; in data set [7], 94.9 nM; in [8] it was 105 nM. Moreover, 363 nM corresponded to half-maximal inhibition in [3] (IC50 at 72 h). Also, the “anti-tumor proliferation effect” value in [4] is recorded as “can effectively exert anti-tumor proliferation effects”. The “distribution of blood flow” value in [9] was “did not significantly affect the distribution of blood flow in tissues except tumor tissues”. Moreover, in [9], the “intratumoral blood flow distribution” value was “can significantly reduce the intratumoral blood flow distribution”. Further, the neutrophil count entry with neutrophil count is listed as “had no obvious effect on neutrophils”.

As for `CC(C)(C)c1[nH]cnc1/C=C1\NC(=O)[C@H](Cc2ccccc2)NC1=O` [tert-butyl-phenylahistin, reference compound], in the data set on tubulin in HuVEC cells, the cell membrane blebbing result is listed as “induced” and the microtubule depolymerization result was “induced”.
